Test results as given in PubChem BioAssay AID2060609 (Molecular Pharmacology Branch, DTP, NCI, 2025).
pIC50: −log10 of the molar value. Values joined by “and” are separate entries in the source; they are usually repeats but may differ in a detail not shown here. Equal entries are not always repeated.

Tested on: 855422-203-R-J1-PDC complex spheroids, viability
Assay: Anticancer human tumor 855422-203-R-J1-PDC patient-derived bladder carcinoma cell line growth inhibition [CLK]
Conditions: for viability, T/C: stronger effect = lower value
Method in brief: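 Multi-cell-type spheroids combined patient-derived tumor cells with HUVEC endothelial cells and human mesenchymal stem cells. Paired agents were dosed in half-log steps down from about clinical Cmax, or from 10 microM where Cmax was unknown.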

[1] = curve of first compound, second compound 0.0316 µM
[2] = curve of first compound, second compound 0.1 µM
[3] = curve of first compound, second compound 0.316 µM
[4] = curve of first compound, second compound 1 µM
[5] = curve of first compound, second compound 3.16 µM
[6] = curve of first compound, second compound 10 µM
[7] = second compound 0.0316 µM, first compound 0.00949 µM
[8] = second compound 0.0316 µM, first compound 0.03 µM
[9] = second compound 0.0316 µM, first compound 0.0949 µM
[10] = second compound 0.0316 µM, first compound 0.3 µM
[11] = second compound 0.1 µM, first compound 0.00949 µM
[12] = second compound 0.1 µM, first compound 0.03 µM
[13] = second compound 0.1 µM, first compound 0.0949 µM
[14] = second compound 0.1 µM, first compound 0.3 µM
[15] = second compound 0.316 µM, first compound 0.00949 µM
[16] = second compound 0.316 µM, first compound 0.03 µM
[17] = second compound 0.316 µM, first compound 0.0949 µM
[18] = second compound 0.316 µM, first compound 0.3 µM
[19] = second compound 1 µM, first compound 0.00949 µM
[20] = second compound 1 µM, first compound 0.03 µM
[21] = second compound 1 µM, first compound 0.0949 µM
[22] = second compound 1 µM, first compound 0.3 µM
[23] = second compound 3.16 µM, first compound 0.00949 µM
[24] = second compound 3.16 µM, first compound 0.03 µM
[25] = second compound 3.16 µM, first compound 0.0949 µM
[26] = second compound 3.16 µM, first compound 0.3 µM
[27] = second compound 10 µM, first compound 0.00949 µM
[28] = second compound 10 µM, first compound 0.03 µM
[29] = second compound 10 µM, first compound 0.0949 µM
[30] = second compound 10 µM, first compound 0.3 µM
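Note: spheroids exposed to drugs for seven days before readout.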
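Throughout, for viability, T/C: 100% = DMSO vehicle control wells.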

In the case of `CC(C)CC(NC(=O)C(Cc1ccccc1)NC(=O)c1cnccn1)B(O)O` (stereo not given) + CNC(=O)c1ccc(Nc2nc(OC3CCCC3)c3c(-c4ccc5nc(C)oc5c4)c[nH]c3n2)c(OC)c1, the pIC50 [1] was over 9.02, the pIC50 [2] was over 9.02 and the pIC50 [3] was over 9.02. For the same compound, the pIC50 [4] was over 9.02, the pIC50 [5] was over 9.02 and the pIC50 [6] was over 9.02. For the same compound, the viability, T/C (second compound 0.0316 µM, first compound 0.000949 µM) was 4.13%, the viability, T/C (second compound 0.0316 µM, first compound 0.003 µM) was 0.22% and the viability, T/C [7] was 0.2%. For the same compound, the viability, T/C [8] was 0.21%, the viability, T/C [9] was 0.17% and the viability, T/C [10] was 0.18%. For the same compound, the viability, T/C (second compound 0.1 µM, first compound 0.000949 µM) was 2.95%, the viability, T/C (second compound 0.1 µM, first compound 0.003 µM) was 0.2% and the viability, T/C [11] was 0.18%. For the same compound, the viability, T/C [12] was 0.17%, the viability, T/C [13] was 0.17% and the viability, T/C [14] was 0.49%. It also gave a viability, T/C (second compound 0.316 µM, first compound 0.000949 µM) of 2.47%, a viability, T/C (second compound 0.316 µM, first compound 0.003 µM) of 0.17% and a viability, T/C [15] of 0.13%. The viability, T/C [16] was 0.13%, the viability, T/C [17] was 0.12% and the viability, T/C [18] was 0.54%. It also gave a viability, T/C (second compound 1 µM, first compound 0.000949 µM) of 1.78%, a viability, T/C (second compound 1 µM, first compound 0.003 µM) of 0.13% and a viability, T/C [19] of 0.13%. For the same compound, the viability, T/C [20] was 0.1%, the viability, T/C [21] was 0.14% and the viability, T/C [22] was 0.1%. The viability, T/C (second compound 3.16 µM, first compound 0.000949 µM) was 1.68%, the viability, T/C (second compound 3.16 µM, first compound 0.003 µM) was 0.13% and the viability, T/C [23] was 0.65%. For the same compound, the viability, T/C [24] was 0.08%, the viability, T/C [25] was 0.1% and the viability, T/C [26] was 0.11%. It also gave a viability, T/C (second compound 10 µM, first compound 0.000949 µM) of 1.83%, a viability, T/C (second compound 10 µM, first compound 0.003 µM) of 0.15% and a viability, T/C [27] of 0.13%. The viability, T/C [28] was 0.12%, the viability, T/C [29] was 0.28% and the viability, T/C [30] was 0.12%.
With `C=CC(=O)Nc1cc(Nc2nccc(-c3cn(C)c4ccccc34)n2)c(OC)cc1N(C)CCN(C)C` the viability, T/C (compound 0.000949 µM) was 112% and 158%, the viability, T/C (compound 0.003 µM) was 91.3% and 98.2% and the viability, T/C (compound 0.00949 µM) was 107% and 117%. For the same compound, the viability, T/C (compound 0.03 µM) was 99.9% and 90.9%, the viability, T/C (compound 0.0949 µM) was 108% and 118% and the viability, T/C (compound 0.3 µM) was 101% and 98.4%. For the same compound, the pIC50 (curve of compound) was under 6.52.
`NC(=O)C(=Cn1cnc(-c2cc(C(F)(F)F)cc(C(F)(F)F)c2)n1)c1cncnc1` + CNC(=O)c1ccc(Nc2nc(OC3CCCC3)c3c(-c4ccc5nc(C)oc5c4)c[nH]c3n2)c(OC)c1 showed a pIC50 [1] of 7.16, a pIC50 [2] of over 8.02 and a pIC50 [3] of over 8.02. The pIC50 [4] was over 8.02, the pIC50 [5] was over 8.02 and the pIC50 [6] was over 8.02. For the same compound, the viability, T/C [7] was 123%, the viability, T/C [8] was 150% and the viability, T/C [9] was 17.6%. The viability, T/C [10] was 10.1%, the viability, T/C (second compound 0.0316 µM, first compound 0.949 µM) was 9.34% and the viability, T/C (second compound 0.0316 µM, first compound 3 µM) was 3.87%. It also gave a viability, T/C [11] of 44.8%, a viability, T/C [12] of 50.1% and a viability, T/C [13] of 12.1%. It also gave a viability, T/C [14] of 6.75%, a viability, T/C (second compound 0.1 µM, first compound 0.949 µM) of 5.9% and a viability, T/C (second compound 0.1 µM, first compound 3 µM) of 2.36%. It also gave a viability, T/C [15] of 20.1%, a viability, T/C [16] of 13.7% and a viability, T/C [17] of 12.3%. The viability, T/C [18] was 6.63%, the viability, T/C (second compound 0.316 µM, first compound 0.949 µM) was 3.98% and the viability, T/C (second compound 0.316 µM, first compound 3 µM) was 3%. For the same compound, the viability, T/C [19] was 18.6%, the viability, T/C [20] was 10.4% and the viability, T/C [21] was 9.1%. The viability, T/C [22] was 3.59%, the viability, T/C (second compound 1 µM, first compound 0.949 µM) was 1.47% and the viability, T/C (second compound 1 µM, first compound 3 µM) was 0.79%. The viability, T/C [23] was 14.3%, the viability, T/C [24] was 14% and the viability, T/C [25] was 6.09%. The viability, T/C [26] was 2.12%, the viability, T/C (second compound 3.16 µM, first compound 0.949 µM) was 1.2% and the viability, T/C (second compound 3.16 µM, first compound 3 µM) was 1.63%. For the same compound, the viability, T/C [27] was 14.7%, the viability, T/C [28] was 13.1% and the viability, T/C [29] was 7.07%. The viability, T/C [30] was 1.75%, the viability, T/C (second compound 10 µM, first compound 0.949 µM) was 1.33% and the viability, T/C (second compound 10 µM, first compound 3 µM) was 0.47%.
With `CC(CO)NC(=O)c1cc(-c2ccc(Cl)cc2)nn(-c2cnn(C)c2)c1=O` (stereo not given) the viability, T/C (compound 0.0316 µM) was 92.5% and 94.5%, the viability, T/C (compound 0.1 µM) was 89.1% and 85.5% and the viability, T/C (compound 0.316 µM) was 94.6% and 92.7%. The viability, T/C (compound 1 µM) was 93.5% and 99.6%, the viability, T/C (compound 3.16 µM) was 110% and 99.5% and the viability, T/C (compound 10 µM) was 82.2% and 94%. The pIC50 (curve of compound) was under 5.00.
`COc1c(OCCCN2CCOCC2)ccc2c3n(c(=NC(=O)c4cnc(N)nc4)nc12)CCN3` + CNC(=O)c1ccc(Nc2nc(OC3CCCC3)c3c(-c4ccc5nc(C)oc5c4)c[nH]c3n2)c(OC)c1 was tested, and the pIC50 [1] was 7.85, the pIC50 [2] was 8.21 and the pIC50 [3] was over 8.50. The pIC50 [4] was over 8.50, the pIC50 [5] was over 8.50 and the pIC50 [6] was over 8.50. For the same compound, the viability, T/C (second compound 0.0316 µM, first compound 0.00316 µM) was 84.2%, the viability, T/C (second compound 0.0316 µM, first compound 0.01 µM) was 58.8% and the viability, T/C (second compound 0.0316 µM, first compound 0.0316 µM) was 29.8%. It also gave a viability, T/C (second compound 0.0316 µM, first compound 0.1 µM) of 10.1%, a viability, T/C (second compound 0.0316 µM, first compound 0.316 µM) of 4.15% and a viability, T/C (second compound 0.0316 µM, first compound 1 µM) of 1.68%. It also gave a viability, T/C (second compound 0.1 µM, first compound 0.00316 µM) of 52%, a viability, T/C (second compound 0.1 µM, first compound 0.01 µM) of 49.5% and a viability, T/C (second compound 0.1 µM, first compound 0.0316 µM) of 25.3%. It also gave a viability, T/C (second compound 0.1 µM, first compound 0.1 µM) of 9.48%, a viability, T/C (second compound 0.1 µM, first compound 0.316 µM) of 3.91% and a viability, T/C (second compound 0.1 µM, first compound 1 µM) of 2.07%. It also gave a viability, T/C (second compound 0.316 µM, first compound 0.00316 µM) of 17.3%, a viability, T/C (second compound 0.316 µM, first compound 0.01 µM) of 18.5% and a viability, T/C (second compound 0.316 µM, first compound 0.0316 µM) of 8.61%. For the same compound, the viability, T/C (second compound 0.316 µM, first compound 0.1 µM) was 7.71%, the viability, T/C (second compound 0.316 µM, first compound 0.316 µM) was 3.19% and the viability, T/C (second compound 0.316 µM, first compound 1 µM) was 1.46%. The viability, T/C (second compound 1 µM, first compound 0.00316 µM) was 19.4%, the viability, T/C (second compound 1 µM, first compound 0.01 µM) was 16.5% and the viability, T/C (second compound 1 µM, first compound 0.0316 µM) was 7.5%. The viability, T/C (second compound 1 µM, first compound 0.1 µM) was 3.51%, the viability, T/C (second compound 1 µM, first compound 0.316 µM) was 7.67% and the viability, T/C (second compound 1 µM, first compound 1 µM) was 1.54%. For the same compound, the viability, T/C (second compound 3.16 µM, first compound 0.00316 µM) was 18.8%, the viability, T/C (second compound 3.16 µM, first compound 0.01 µM) was 14.2% and the viability, T/C (second compound 3.16 µM, first compound 0.0316 µM) was 10.1%. It also gave a viability, T/C (second compound 3.16 µM, first compound 0.1 µM) of 7.42%, a viability, T/C (second compound 3.16 µM, first compound 0.316 µM) of 2.07% and a viability, T/C (second compound 3.16 µM, first compound 1 µM) of 1.38%. For the same compound, the viability, T/C (second compound 10 µM, first compound 0.00316 µM) was 16.3%, the viability, T/C (second compound 10 µM, first compound 0.01 µM) was 11.2% and the viability, T/C (second compound 10 µM, first compound 0.0316 µM) was 6.12%. For the same compound, the viability, T/C (second compound 10 µM, first compound 0.1 µM) was 4.26%, the viability, T/C (second compound 10 µM, first compound 0.316 µM) was 3.27% and the viability, T/C (second compound 10 µM, first compound 1 µM) was 1.62%.
